Target: Prothrombin (Homo sapiens) (UniProt P00734)
Assay: Binding affinity for human alpha-thrombin

K ass | SMILES
7.27e+06 l M-1 | CCc1cc(Cc2c(-c3ccc(OCCN4CCCC4)cc3)sc3ccccc23)ccc1OCCN1CCCC1
290000 l M-1 | CCNc1cc(Cc2c(-c3ccc(OCCN4CCCC4)cc3)sc3ccccc23)ccc1OCCN1CCCC1
2.42e+07 l M-1 | Cc1cc(Cc2c(-c3ccc(OCCN4CCCC4)cc3)sc3ccccc23)ccc1OCCN1CCCC1
1.1e+06 l M-1 | Oc1cc(Cc2c(-c3ccc(OCCN4CCCC4)cc3)sc3ccccc23)ccc1OCCN1CCCC1
2.75e+07 l M-1 | Brc1cc(Cc2c(-c3ccc(OCCN4CCCC4)cc3)sc3ccccc23)ccc1OCCN1CCCC1
420000 l M-1 | CCCCc1cc(Cc2c(-c3ccc(OCCN4CCCC4)cc3)sc3ccccc23)ccc1OCCN1CCCC1
1.02e+06 l M-1 | CCCc1cc(Cc2c(-c3ccc(OCCN4CCCC4)cc3)sc3ccccc23)ccc1OCCN1CCCC1

Continued, molecule first:

SMILES | K ass
O=S(=O)(Nc1cc(Cc2c(-c3ccc(OCCN4CCCC4)cc3)sc3ccccc23)ccc1OCCN1CCCC1)c1ccccc1 | 220000 l M-1
FC(F)(F)c1cc(Cc2c(-c3ccc(OCCN4CCCC4)cc3)sc3ccccc23)ccc1OCCN1CCCC1 | 2.4e+06 l M-1
CC(=O)Nc1cc(Cc2c(-c3ccc(OCCN4CCCC4)cc3)sc3ccccc23)ccc1OCCN1CCCC1 | 310000 l M-1
Fc1cc(Cc2c(-c3ccc(OCCN4CCCC4)cc3)sc3ccccc23)ccc1OCCN1CCCC1 | 4.87e+06 l M-1
COc1cc(Cc2c(-c3ccc(OCCN4CCCC4)cc3)sc3ccccc23)ccc1OCCN1CCCC1 | 1.22e+07 l M-1
CS(=O)(=O)Nc1cc(Cc2c(-c3ccc(OCCN4CCCC4)cc3)sc3ccccc23)ccc1OCCN1CCCC1 | 410000 l M-1
Brc1cc(OCCN2CCCC2)ccc1Cc1c(-c2ccc(OCCN3CCCC3)cc2)sc2ccccc12 | 270000 l M-1
Nc1cc(Cc2c(-c3ccc(OCCN4CCCC4)cc3)sc3ccccc23)ccc1OCCN1CCCC1 | 1.1e+06 l M-1
O=[N+]([O-])c1cc(Cc2c(-c3ccc(OCCN4CCCC4)cc3)sc3ccccc23)ccc1OCCN1CCCC1 | 1.02e+07 l M-1
